Data taken from ChEMBL document CHEMBL1201862, “PubChem BioAssay data set” (2004).
“And” between values parts separate entries of the source, which are not always exact repeats. Identical values can stand only once.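 Five concentrations, 48 hours, 96-well plates. GI50 marks 50% less growth.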 The source made the active and inactive calls. Cut-off read from the data, not from the text of the source: active = GI50 up to about 1.1 µM and inactive = higher.

Experiments:
Assay in all cases: inhibition of tumour cell growth, NCI panel, 48 h
ACHN = test system: ACHN
CCRF-CEM = test system: CCRF-CEM
HT-29 = test system: HT-29
LXFL 529 = test system: LXFL 529
M14 = test system: M14
NCI-H23 = test system: NCI-H23
OVCAR-4 = test system: OVCAR-4
OVCAR-5 = test system: OVCAR-5
OVCAR-8 = test system: OVCAR-8
SF-295 = test system: SF-295
SK-MEL-2 = test system: SK-MEL-2
SK-MEL-5 = test system: SK-MEL-5
TK-10 = test system: TK-10
A498 = test system: A498
HOP-92 = test system: HOP-92
Hs-578T = test system: Hs-578T
MCF7 = test system: MCF7
MDA-MB-231 = test system: MDA-MB-231
OVCAR-3 = test system: OVCAR-3
T47D = test system: T47D

Row | SMILES | GI50 (ACHN) | GI50 (CCRF-CEM) | GI50 (HT-29) | GI50 (LXFL 529) | GI50 (M14) | GI50 (NCI-H23) | GI50 (OVCAR-4) | GI50 (OVCAR-5) | GI50 (OVCAR-8) | GI50 (SF-295) | GI50 (SK-MEL-2) | GI50 (SK-MEL-5) | GI50 (TK-10) | GI50 (A498) | GI50 (HOP-92) | GI50 (Hs-578T) | GI50 (MCF7) | GI50 (MDA-MB-231) | GI50 (OVCAR-3) | GI50 (T47D)
1 | CCC(=O)c1c(NOC2OC(COC(C)=O)C(OC(C)=O)C(OC(C)=O)C2OC(C)=O)nc(OC)n(C)c1=O (stereo not given) | > 100 µM (inactive) | > 100 µM (inactive) | > 100 µM (inactive) | > 100 µM (inactive) | > 100 µM (inactive) | > 100 µM (inactive) | > 100 µM (inactive) | > 100 µM (inactive) | > 100 µM (inactive) | > 100 µM (inactive) | > 100 µM (inactive) | > 100 µM (inactive) | > 100 µM (inactive) | – | – | – | – | – | – | –
2 | N#CCCC(C=O)(CCC#N)CCC#N | > 100 µM (inactive) | > 100 µM (inactive) | > 100 µM (inactive) | – | > 100 µM (inactive) | > 100 µM (inactive) | > 100 µM (inactive) | > 100 µM (inactive) | > 100 µM (inactive) | > 100 µM (inactive) | > 100 µM (inactive) | > 100 µM (inactive) | > 100 µM (inactive) | > 100 µM (inactive) | > 100 µM (inactive) | > 100 µM (inactive) | > 100 µM (inactive) | > 100 µM (inactive) | > 100 µM (inactive) | > 100 µM (inactive)
3 | CCOC(=O)/C=C1\C[C@H](NC(=O)OCc2ccccc2)C(=O)N1CC(=O)OCC | > 100 µM (inactive) | > 100 µM (inactive) | > 100 µM (inactive) | – | > 100 µM (inactive) | > 100 µM (inactive) | > 100 µM (inactive) | > 100 µM (inactive) | > 100 µM (inactive) | > 100 µM (inactive) | > 100 µM (inactive) | > 100 µM (inactive) | > 100 µM (inactive) | > 100 µM (inactive) | > 100 µM (inactive) | > 100 µM (inactive) | > 100 µM (inactive) | > 100 µM (inactive) | > 100 µM (inactive) | > 100 µM (inactive)
4 | CC(=O)C1(O)CCC2(O)C3(O)CC=C4CC(O)CCC4(C)C3CC(OC(=O)c3ccc(O)cc3)C12C (stereo not given) | > 100 µM (inactive) | > 100 µM (inactive) | > 100 µM (inactive) | – | > 100 µM (inactive) | > 100 µM (inactive) | > 100 µM (inactive) | > 100 µM (inactive) | > 100 µM (inactive) | > 100 µM (inactive) | > 100 µM (inactive) | > 100 µM (inactive) | > 100 µM (inactive) | > 100 µM (inactive) | > 100 µM (inactive) | > 100 µM (inactive) | > 100 µM (inactive) | > 100 µM (inactive) | > 100 µM (inactive) | > 100 µM (inactive)
5 | C/C(=N/NC(=S)Nc1cccc(Cl)c1)c1cccc(/C(C)=N\NC(=S)Nc2cccc(Cl)c2)n1 | 0.813 µM (active) | 1.28 µM (inactive) | 2.27 µM (inactive) | – | 1.62 µM (inactive) | 3.69 µM (inactive) | 5.14 µM (inactive) | 6.43 µM (inactive) | 0.902 µM (active) | 1.77 µM (inactive) | 3.73 µM (inactive) | 2.03 µM (inactive) | 2.02 µM (inactive) | 4.85 µM (inactive) | 3.65 µM (inactive) | > 23.8 µM (inactive) | 1.99 µM (inactive) | 2.69 µM (inactive) | 0.379 µM (active) | 3.48 µM (inactive)
6 | C=C1C(=O)OC2CC3(CO3)C3C(O)C(O)CC3(C)CC12 (stereo not given) | 19.7 µM (inactive) | 15.2 µM (inactive) | 30.5 µM (inactive) | – | 16.4 µM (inactive) | 22.3 µM (inactive) | 76.6 µM (inactive) | 27.7 µM (inactive) | 22.3 µM (inactive) | > 100 µM (inactive) | 16 µM (inactive) | 19 µM (inactive) | 35.6 µM (inactive) | 28.4 µM (inactive) | 27.6 µM (inactive) | 81.3 µM (inactive) | 21 µM (inactive) | 28.6 µM (inactive) | 21.9 µM (inactive) | 30.9 µM (inactive)
7 | CCOC(=O)C1=C(c2ccccc2)NC(c2ccccc2)=C(C(=O)OCC)c2c1c(=O)cc[nH]c2=O | 72.8 µM (inactive) | – | 74.8 µM (inactive) | > 100 µM (inactive) | > 100 µM (inactive) | 79.4 µM (inactive) | 92.3 µM (inactive) | > 100 µM (inactive) | > 100 µM (inactive) | 86.7 µM (inactive) | > 100 µM (inactive) | – | > 100 µM (inactive) | – | 71.6 µM (inactive) | – | – | – | > 100 µM (inactive) | –
8 | CC(C)(C)OC(=O)N(CCCCNC(=O)c1ccccc1)CCCNC(=O)c1ccccc1 | > 100 µM (inactive) | 72.1 µM (inactive) | > 100 µM (inactive) | – | > 100 µM (inactive) | > 100 µM (inactive) | > 100 µM (inactive) | > 100 µM (inactive) | > 100 µM (inactive) | > 100 µM (inactive) | > 100 µM (inactive) | > 100 µM (inactive) | > 100 µM (inactive) | > 100 µM (inactive) | > 100 µM (inactive) | > 100 µM (inactive) | > 100 µM (inactive) | > 100 µM (inactive) | > 100 µM (inactive) | 74.3 µM (inactive)
9 | Cn1nc(-c2ccccc2)c(C(=O)/C=C/c2ccc(Cl)cc2)c(N2CCCC2)c1=O | 1.72 µM (inactive) | 2.46 µM (inactive) | 2.21 µM (inactive) | 3.47 µM (inactive) | 5.33 µM (inactive) | 2.89 µM (inactive) | – | – | 4.91 µM (inactive) | 0.632 µM (active) | – | 5.46 µM (inactive) | 11.6 µM (inactive) | – | 1.67 µM (inactive) | – | – | – | – | –
10 | CC(=O)c1[nH]c(NC(C)C)c(C(=S)Nc2ccccc2)c1N | 33.3 µM (inactive) | 25.5 µM (inactive) | 38.8 µM (inactive) | – | 19.8 µM (inactive) | 36 µM (inactive) | 30.4 µM (inactive) | 61.8 µM (inactive) | 28.4 µM (inactive) | 38.1 µM (inactive) | 17.9 µM (inactive) | 18.3 µM (inactive) | 40.8 µM (inactive) | 18.9 µM (inactive) | 17.7 µM (inactive) | 36 µM (inactive) | 19.5 µM (inactive) | 22.3 µM (inactive) | 32.1 µM (inactive) | 21.4 µM (inactive)
11 | CCCCCCCCC/C=C1\CC(CO)(COC(=O)C2CCCCC2)OC1=O (stereo not given) | 20 µM (inactive) | 12.9 µM (inactive) | 19.7 µM (inactive) | – | 18.6 µM (inactive) | 22.9 µM (inactive) | 22.8 µM (inactive) | 17.8 µM (inactive) | 15.8 µM (inactive) | 15.9 µM (inactive) | 18.2 µM (inactive) | 11.8 µM (inactive) | 21.3 µM (inactive) | 22.1 µM (inactive) | 8.17 µM (inactive) | 16.4 µM (inactive) | 23.2 µM (inactive) | 19.7 µM (inactive) | 18.6 µM (inactive) | 20.9 µM (inactive)
12 | Cc1[nH]c(C)c(CN(C)C)c1CN(C)C | > 100 µM (inactive) | > 100 µM (inactive) | > 100 µM (inactive) | – | > 100 µM (inactive) | > 100 µM (inactive) | > 100 µM (inactive) | > 100 µM (inactive) | > 100 µM (inactive) | > 100 µM (inactive) | > 100 µM (inactive) | > 100 µM (inactive) | > 100 µM (inactive) | > 100 µM (inactive) | > 100 µM (inactive) | > 100 µM (inactive) | > 100 µM (inactive) | > 100 µM (inactive) | > 100 µM (inactive) | > 100 µM (inactive)
13 | COc1ccc(/C=C2/N/C(=N\N=C/C(O)C(O)C(O)C(O)CO)NC2=O)cc1 (stereo not given) | > 100 µM (inactive) | 53.8 µM (inactive) | > 100 µM (inactive) | – | > 100 µM (inactive) | > 100 µM (inactive) | 39.9 µM (inactive) and 39.4 µM (inactive) | > 100 µM (inactive) | > 100 µM (inactive) | > 100 µM (inactive) | > 100 µM (inactive) | > 100 µM (inactive) | > 100 µM (inactive) | > 100 µM (inactive) | > 100 µM (inactive) | > 100 µM (inactive) | 40.1 µM (inactive) | > 100 µM (inactive) | > 100 µM (inactive) | 62.1 µM (inactive)
14 | COc1ccc(/N=C(Nc2ccc(OC)cc2)/C(=N/c2ccc(OC)cc2)Nc2ccc(OC)cc2)cc1 | > 100 µM (inactive) | 36 µM (inactive) | > 100 µM (inactive) | – | > 100 µM (inactive) | > 100 µM (inactive) | > 100 µM (inactive) | > 100 µM (inactive) | > 100 µM (inactive) | > 100 µM (inactive) | > 100 µM (inactive) | > 100 µM (inactive) | > 100 µM (inactive) | > 100 µM (inactive) | > 100 µM (inactive) | 37.1 µM (inactive) | > 100 µM (inactive) | > 100 µM (inactive) | > 100 µM (inactive) | > 100 µM (inactive)
15 | C[N+]1=C2[B-](C(C)(C)C)=[N+](C(C)(C)C)[B-]2(C(C)(C)C)[N+](C)=C2[B-](C(C)(C)C)=[N+](C(C)(C)C)[B-]21C(C)(C)C (stereo not given) | > 100 µM (inactive) | > 100 µM (inactive) | > 100 µM (inactive) | – | > 100 µM (inactive) | > 100 µM (inactive) | > 100 µM (inactive) | > 100 µM (inactive) | > 100 µM (inactive) | 61.9 µM (inactive) | > 100 µM (inactive) | > 100 µM (inactive) | > 100 µM (inactive) | > 100 µM (inactive) | > 100 µM (inactive) | > 100 µM (inactive) | 59.4 µM (inactive) | > 100 µM (inactive) | > 100 µM (inactive) | > 100 µM (inactive)
